Here are results for three compounds from patent publication US12144856B2 (priority 2019, dated 2024).

Where only a bound is given, the exact number is not on record here.

Series [1] has as its system influenza vaccine. Particulars: older adults, cited from earlier work.
Series [2] has as its system 2009 pandemic influenza A(H1N1) virus and avian influenza virus A(H7N9). Conditions: cited from earlier work.
Series [3] concerns influenza vaccine. Particulars: young adults; topical imiquimod vs sham aqueous cream; cited from earlier work.
For series [4], the system named is split-virion seasonal influenza vaccine. The series is described as follows: Antibody titers after influenza vaccination with or without intraperitoneal miltefosine (FIG. 1). In kind it is in vivo, mice. An excerpt: FIG. 1: FIG. 1 depicts antibody titers measured 14 days after vaccination with or without miltefosine. A second dose of vaccine was provided on day 14. Circles indicate data from the miltefosine+vaccine treatment group; squares indicate data from the vaccine only treatment group; triangles indicate data from the miltefosine only treatment group; inverted triangles indicate data from a saline-treated control group.
Miltefosine is an FDA-approved anti-parasitic drug that is used in the treatment of Leishmaniasis. The immunomodulating effects of miltefosine include being an agonist of TLR4 and TLR9 (Das S, Rani M, Pandey K, Sahoo G C, Rabidas V N, Singh D, et al. Combination of paromomycin and miltefosine promotes TLR4-dependent induction of antileishmanial immune response in vitro. J Antimicrob Chemother 2012; 67:2373-8; Mukherjee A K, Gupta G, Adhikari A, Majumder S, Kar Mahapatra S, Bhattacharyya Majumdar S, et al. Miltefosine triggers a strong proinflammatory cytokine response during visceral leishmaniasis: role of TLR4 and TLR9. Int Immunopharmacol 2012; 12:565-72), enhancing IFN-γ receptor (Wadhone P, Maiti M, Agarwal R, Kamat V, Martin S, Saha B. Miltefosine promotes IFN-gamma-dominated anti-leishmanial immune response. J Immunol 2009; 182:7146-54), promoting IL12-dependent TH1 response (Wadhone P, Maiti M, Agarwal R, Kamat V, Martin S, Saha B. Miltefosine promotes IFN-gamma-dominated anti-leishmanial immune response. J Immunol 2009; 182:7146-54), and inhibiting PI3K-Akt pathway (Lucas A, Kim Y, Rivera-Pabon O, Chae S, Kim D H, Kim B. Targeting the PI3K/Akt cell survival pathway to induce cell death of HIV-1 infected macrophages with alkylphospholipid compounds. PLoS One 2010; 5). Topical formulation of miltefosine has been evaluated in the treatment of breast carcinoma (Clive S, Gardiner J, Leonard R C. Miltefosine as a topical treatment for cutaneous metastases in breast carcinoma. Cancer Chemother Pharmacol 1999; 44 Suppl:S29-30). […] It was also noted that both IgG1 and IgG2a responses were enhanced by the use of miltefosine in combination with intradermal vaccination.

Series [5] has as its system influenza infection. The series is described as follows: Survival of mice infected 3 or 7 days after a single influenza vaccination with or without miltefosine (FIGS. 2A, 2B). In kind it is in vivo. Particulars: intraperitoneal miltefosine adjuvant + vaccine vs vaccine without adjuvant; infected 3 or 7 days after vaccination. On the procedure: FIGS. 2A and 2B: FIG. 2A depicts survival rates of infected mice that were vaccinated with or without miltefosine 3 days prior to infection. Data from treatment with 0.2 mg miltefosine+vaccine is represented by a combination a circle and a solid line. Data from treatment with 0.008 mg miltefosine+vaccine is represented by a combination of a rhombus and a dashed line. Data from treatment with 0.2 mg miltefosine only is represented by a dash/dot line. Data from treatment with vaccine only is represented by a combination of a square and a solid line. Data from treatment with a saline control is represented by a dotted line. FIG. 2B depicts survival rates of infected mice that were vaccinated with (circle/dashed line, rhombus/dashed line, or black) or without (square/solid line) miltefosine 7 days prior to infection. Data from treatment with 1 mg miltefosine+vaccine is represented by a combination a triangle and a solid line. Data from treatment with 0.2 mg miltefosine+vaccine is represented by a combination a circle and a solid line. Data from treatment with 0.008 mg miltefosine+vaccine is represented by a combination of a rhombus and a dashed line. Data from treatment with 0.2 mg miltefosine only is represented by a dash/dot line. Data from treatment with vaccine only is represented by a combination of a square and a solid line. […]

Series [6] deals with influenza infection. Nature of the series: Post-infection antibody, hemagglutination and microneutralization titers of mice vaccinated with or without miltefosine (FIG. 3). In kind it is in vivo. Conditions: intraperitoneal miltefosine + vaccine vs vaccine only. An excerpt:
Circles indicate data from the miltefosine+vaccine treatment group; squares indicate data from the vaccine only treatment group; triangles indicate data from the miltefosine only treatment group; inverted triangles indicate data from a saline-treated control group.
In FIG. 3 circles indicate data from the miltefosine+vaccine treatment group, squares indicate data from the vaccine only treatment group, triangles indicate data from the miltefosine only treatment group, and inverted triangles indicate data from a saline-treated control group.

[7] abbreviates: miltefosine + vaccine vs vaccine only, 14 days after vaccination.

`CCCCC/C=C\C/C=C\C/C=C\C/C=C\CCCC(=O)N[C@H](C)CO` [(R)-methanandamide]: the CC50 in the series “in vitro” was > 60 µM.
In the case of `CC(C)Cn1cnc2c(N)nc3ccccc3c21` [imiquimod], the Antibody response entry with influenza vaccine [1] (topical imiquimod vs sham aqueous cream before intradermal vaccine) was “more rapid and robust”. For the same compound, the “Rate of hospitalization and pneumonia” value in the series with influenza vaccine [1] (topical imiquimod vs sham aqueous cream) is reported as “significantly lower”. In series [2] (2009 pandemic A(H1N1) and A(H7N9) lethal challenge), the “Death during lethal challenge” value is “reduction”. For the same compound, the “Immunogenicity of the influenza vaccine” value in series [2] (mouse model) is “accelerate and augment”. Moreover, the “Antibody responses for homologous virus” value in the series with influenza vaccine [3] is “faster and more robust”.
Take `CCCCCCCCCCCCCCCCOP(=O)([O-])OCC[N+](C)(C)C` [miltefosine]: in series [4] (setting [7]), the Hemagglutination titer entry is given as “improved” and the Microneutralization titer result was “improved”. Besides, the IgG titer result in series [4] (miltefosine in combination with influenza vaccination vs vaccine only, two weeks post-immunization) was “significantly increased”. Moreover, in series [4] (miltefosine in combination with vaccination), the “IgG1 and IgG2a responses” value is “enhanced”. Further, in the series on influenza infection [5], the Survival entry was “significantly improved”. Also, in the series on influenza infection [6], the IgG1/IgG2 ratio result is “greater”. In addition, in the series with influenza infection [6] (4 days post-infection), the HAI titer entry is “significantly higher” and the MN titer result was “significantly higher”.
